Values joined by “and” are separate entries in the source; they are usually repeats but may differ in a detail not shown here. Equal values may be shown once.
Settings: Liquid, Transpiration

NCCN1CCNCC1 [N-(β-aminoethyl)piperazine)]
Settings	vapor or sublimation pressure
295.7 K	0.0064 kPa
297.7 K	0.0079 kPa
300.4 K	0.0096 kPa
303.3 K	0.0127 kPa and 0.0131 kPa
304.7 K	0.0144 kPa
305.6 K	0.015 kPa
308.2 K	0.0193 kPa
310.2 K	0.0227 kPa
312.6 K	0.028 kPa
314.6 K	0.0333 kPa
317.5 K	0.0414 kPa
320.7 K	0.0534 kPa
323.1 K	0.0653 kPa
326.4 K	0.0835 kPa
328.2 K	0.0943 kPa
330.5 K	0.1135 kPa
330.7 K	0.1203 kPa
333.1 K	0.1411 kPa
333.2 K	0.134 kPa
335.2 K	0.1628 kPa
338.1 K	0.1943 kPa

CN1CCN(CCN)CC1 [1-(2-aminoethyl)-4-methyl-piperazine]
Settings	vapor or sublimation pressure
297.8 K	0.0246 kPa
298.8 K	0.0265 kPa
302 K	0.0341 kPa
302.7 K	0.0368 kPa
304.6 K	0.0433 kPa
307.2 K	0.0548 kPa and 0.0538 kPa
310.5 K	0.0691 kPa
311.6 K	0.0765 kPa
313.2 K	0.085 kPa
314.3 K	0.0925 kPa
315.9 K	0.1026 kPa
317.1 K	0.1153 kPa
320.2 K	0.1434 kPa
323.7 K	0.1872 kPa
327.7 K	0.2497 kPa
331.8 K	0.3218 kPa

NCCNCCNCCN [1,2-ethanediamine, N,N'-bis(2-aminoethyl)-]
Settings	vapor or sublimation pressure
338.2 K	0.00866 kPa
340.7 K	0.01059 kPa
343.5 K	0.0135 kPa
346.3 K	0.01645 kPa
347.2 K	0.01792 kPa
348.2 K	0.01944 kPa
349.4 K	0.0209 kPa
350.1 K	0.022 kPa
350.2 K	0.02259 kPa
352.4 K	0.02695 kPa
353.2 K	0.02857 kPa
355.2 K	0.03317 kPa
355.4 K	0.03445 kPa
356.2 K	0.03575 kPa
358.5 K	0.04226 kPa
359.2 K	0.04519 kPa
361.2 K	0.05252 kPa
363.2 K	0.05873 kPa
364.2 K	0.0654 kPa
365.4 K	0.06908 kPa
367.4 K	0.07992 kPa
368.1 K	0.08563 kPa and 0.08484 kPa
370.2 K	0.09747 kPa
370.4 K	0.09756 kPa
371 K	0.1008 kPa
373.3 K	0.1176 kPa

CN1CCN(C)CC1 [1,4-dimethylpiperazine]
Settings	vapor or sublimation pressure [kPa]
268.1 K	0.2307
270.3 K	0.2719
274.1 K	0.3511
274.8 K	0.3656
278.5 K	0.486
280.1 K	0.5177
283.6 K	0.6602
286.1 K	0.7611
288.5 K	0.8272
291.1 K	0.9973
293.6 K	1.116
296.1 K	1.359
298.5 K	1.561
301.1 K	1.834
303.4 K	2.102
306.1 K	2.518
308.5 K	2.6
311.1 K	3.202

Reference: the NIST ThermoML archive (doi:10.1016/j.jct.2009.09.003)
